Laboratory results: patent US11364211B2, “Methods for selecting phosphatase selective and non-selective phosphatase inhibitors” (MEDICAL RESEARCH COUNCIL, priority 2015, dated 2022)
Entries after “also recorded” stand apart in the source; their conditions may differ.

Key:
PPP1R15A = assay: Induction of PPP1R15A in mouse brain (qPCR); assay type: in vivo; conditions: mice, indicated doses
Experimental: RNA from brain was extracted in trizol (Life Technologies). RNA concentration was measured using a NANODROP1000 spectrophotometer (Thermo Fisher Scientific), and 1 μg was reverse transcribed to cDNA using a SuperScript reverse transcriptase (Life Technologies). Quantitative PCR with primers GAPDH (f): […], GAPDH (r): […], PPP1R15A (f): […];
and PPP1R15A (r): […] was performed using SYBR® Select Master Mix (Ref 4472908, applied biosystems) on a Corbett Rotor-Gene version 6000. Expression of each gene was normalized to the housekeeping gene GAPDH and expressed as fold change calculated using Paffl equation.
PPP1R15A induction was assessed by qPCR on total mRNA extracted from brains of mice treated with the indicated doses of compound of Example 1.

[1] = system: dorsal root ganglia culture (DRG) from PMP22 mutant mice; assay: Myelination in DRG cultures from PMP22 mutant mice; assay type: cell-based, mouse; conditions: 5 nM compound, 14 days
Experimental: Dorsal root ganglia (DRG) dissected from wild-type or Pmp22Tr-J (PMP22mutant) (Henry et al., Neuropathol. Exp. Neurol., 42, 688-706, 1983) embryo at 13.5 or […] (E13.5) were cultured on collagen coated coverslips in neurobasal media supplemented with 4 g/l glucose, 2 mM L-glutamine, 2% B27 supplement and 50 ng/ml neuronal growth factor (NGF) for 7 days. To differentiate Schwann cells and induce myelination, the cultured DRGs were then maintained in C-media (MEM media supplemented with 4 g/l glucose, 2 mM L-glutamine, 10% FCS, 50 ng/ml NGF). The C-media was replaced every other day with freshly added 50 μg/ml ascorbic acid ±5 nM of compound of Example I and cultured for 14 days for myelination by the Schwann cells. The cultured DRGs were then fixed in 4% paraformaldehyde and immunostained with MBP (Rat Myelin basic protein, 1/250 dilution, ab73498).

[2] = Toxicity and weight in mice treated for 2 weeks; assay type: in vivo, mouse; set-up: toxicity / clinical signs: dose or concentration left out as unconfirmed
Experimental: For studying the effect of a compound of Example 1 on weight, C3H/B6 mice were gavaged orally once a day with compounds of Example 1 and mice weight was recorded daily for 2 weeks.
Mice were treated with Example 1 and monitored closely to detect any clinical signs. […] This establishes that PPP1R15B inhibition is not toxic. This was surprising and unanticipated as prior to this study one would have speculated that PPP1R15B inhibitors would be so deleterious that they would have no therapeutic potential.

ATF4 = assay: Induction of ATF4 expression in cells (immunoblot); assay type: cell-based, human; conditions: HeLa cells, 10 μM
Experimental: Cells (90,000 cells/ml) were plated in a 24-well plate and treated as indicated. At the end of treatment cells were lysed in 150 μl Laemmli Buffer. Lysates were boiled at 95° C. for 5 minutes, sonicated and resolved on 4-12% Bolt Bis-Tris Plus Gels (Thermo Fisher Scientific). Proteins were transferred to the nitrocellulose membrane using the iBlot 2 system (Thermo Fisher Scientific) and analysed using the following antibodies: e-IF2α-P (44-728G, Thermo Fisher Scientific, 1:1000), e-IF2α (ab5369, Abcam, 1:1000), tubulin (T5168, Sigma-Aldrich, 1:4000), BiP (610978, BD Biosciences Pharmingen, 1:1000), ATF4 (sc-200, Santa Cruz Biotechnology, 1:500), Ppp1r15a (10449-1-AP, Proteintech, 1:1000) and Ppp1r15b (14634-1-AP, Proteintech, 1:1000). Proteins were visualized using ECL Prime (GE Healthcare).

[3] = Tissue distribution in mice after oral gavage; assay type: in vivo, mouse
Experimental: Pharmacokinetics studies were performed by XenoGesis. TST3 was administrated orally in C57BL/6J males. Plasma samples were prepared by protein precipitation with methanol containing internal standards. Tissues were weighed and prepared by homogenisation (1:3 in phosphate buffered saline) and protein precipitated with methanol containing internal standard. Following the addition of methanol, plasma and tissue samples were placed at −20° C. for 1 hour (or overnight) to allow proteins to precipitate. The samples were then centrifuged at 2,500×g (3,400 rpm) for 20 minutes at 4° C. The supernatants were analysed by LC-MS/MS.

HD-N171-82Q mice = assay: Huntington's disease mouse model, motor performance (rotarod); assay type: in vivo; conditions: 2 mg/kg orally daily for 4 weeks
Experimental: To assess the efficacy of a compound of Example 1 in ameliorating a disease phenotype, 28-day old transgenic mice or littermate control were orally administered daily with a compound of Example 1 (2 mg/kg) or vehicle for a duration of 4 weeks. Disease progression was evaluated by weighting the mice during the treatment and by assessing their motor performances after 4 weeks of treatment.
Eight weeks old HD-N171-82Q mice and their wild-type littermates were first habituated for 1 min on a static rotor and 1 min at constant speed (4 rpm). Habituation was repeated. The test session consisted of four trials with 15 min intervals in between. For each trial 5 mice were placed on an accelerating rotor (4 to 40 rpm) and the latency to fall was recorded, with a maximum limit for individual animal set at 300 s.
To produce an experimental group HD-N171-82Q transgenic males were crossed with C3H/B6 F1 wild type females. 4 weeks old transgenic males and their wild type littermate male controls were randomized in different groups and treated with TST3 for 4 weeks.
TST3 treatment of HD-N171-82Q transgenic males and their wild type littermate male controls started at 4 weeks of age and was continued for 4 weeks before the test. […] In each trial mice were allowed to run on an accelerating rod from 4 to 40 rpm for up to 300 seconds and the latency to fall was counted. […]

MEFs = assay: Translation rates by 35S-methionine labelling in r15a mut/mut or r15b mut/mut MEFs; assay type: cell-based, mouse
Experimental: HeLa cells were maintained in Dulbecco's Modified Eagle's Media (DMEM) supplemented with penicillin, streptomycin, glutamine and 10% fetal bovine serum (FBS). Ppp1r15a −/− and Ppp1r15b −/− MEF cells were maintained in DMEM supplemented with penicillin, streptomycin, glutamine, 55 μM β-mercaptoethanol, 1X non-essential amino acids (Sigma) and 10% FBS.
Cells (90,000 cells/ml) were plated in 12-well plates, treated as indicated, labelled with 100 μCi/ml ^35S-methionine (Hartmann Analytic) for 10 minutes at 37° C., washed with ice-cold PBS and lysed in 120 μl Laemmli Buffer. Lysates were boiled at 95° C. for 5 minutes, sonicated and resolved on 4-12% Bolt Bis-Tris Plus Gels (Thermo Fisher Scientific). Gels were then stained with InstantBlue (Expedeon) and analyzed by phosphorimaging.

With `[H]/N=C(\N)NN=Cc1cccc(Cl)c1Cl` [Example 1, (E)-2-(2,3-dichlorobenzylidene)hydrazine-1-carboximidamide] the “induction of PPP1R15A mRNA in brain” value (PPP1R15A) was “induced PPP1R15A; also recorded: induction of R15A”, the “myelination (length of myelin internodes)” value [1] was “improved myelination; also recorded: increased the length of myelin internodes” and the “toxicity / clinical signs” value ([2]; once a day for 2 weeks) was “undistinguishable from mice treated with placebo; also recorded: not toxic”. For the same molecule, the weight gain ([2]; up to 10 mg/mg once a day for 2 weeks) was “gained weight normally”, the “expression of ATF4 in cells” value (ATF4) was “induced expression” and the “tissue distribution (plasma, brain, spinal cord, pancreas, liver)” value [3] was “good tissue distribution; also recorded: extensive tissue distribution”. For the same molecule, the “motor performance / disease prevention in Huntington's disease mice” value (HD-N171-82Q mice) was “ameliorates Huntington's disease; also recorded: prevented the motor performances impairment; also recorded: preventing disease” and the “translation attenuation upon inactivation of R15A” value (MEFs) was “rendered persistent”.
